The values below come from US7649008B2, “Crystal of benzimidazole derivative and process for producing the same” (priority 2003, dated 2010).

Entries after “also recorded” stand apart in the source; their conditions may differ.

Data set [1] is described as follows: Storage stability of the crystal forms. The data set is classed as physicochemical. The conditions noted are these: qualitative.
The nature of data set [2]: Solubility of the crystal forms in the solvent. The data set is classed as physicochemical. The conditions noted are these: qualitative, solvent not given.
Data set [3] can be described thus: Relative stability of the crystal forms. The data set is classed as physicochemical. Particulars: four kinds of crystals excluding the solvate.
Data set [4] in a line: Absorptivity of the crystal forms. Particulars: qualitative.

Take `Cc1cccc2scc(Cn3c(SCCCC(=O)O)nc4ccccc43)c12` [crystal D, 4-(1-((4-methylbenzothiophen-3-yl)methyl)benzimidazol-2-ylthio)butanoic acid]: the storage stability entry in data set [1] is recorded as “excellent”. The “solubility in the solvent” value in data set [2] is reported as “becomes higher in this order; also recorded: drastically poor”. Besides, the “stability (rank order of crystal forms)” value in data set [3] is “becomes lower in the order of crystal D, crystal B, crystal A and crystal E”.

As for `Cc1cccc2scc(Cn3c(SCCCC(=O)O)nc4ccccc43)c12` [crystal E, 4-(1-((4-methylbenzothiophen-3-yl)methyl)benzimidazol-2-ylthio)butanoic acid], the storage stability entry in data set [1] is “excellent”. Moreover, the absorptivity result in data set [4] is recorded as “comparatively excellent”. Also, the “solubility in the solvent” value in data set [2] is “becomes higher in this order; also recorded: excellent”. The “stability (rank order of crystal forms)” value in data set [3] is “becomes lower in the order of crystal D, crystal B, crystal A and crystal E”.

For `Cc1cccc2scc(Cn3c(SCCCC(=O)O)nc4ccccc43)c12` [hydrate crystal, 4-(1-((4-methylbenzothiophen-3-yl)methyl)benzimidazol-2-ylthio)butanoic acid hydrate], the storage stability result in data set [1] was “excellent”. Besides, the absorptivity result in data set [4] is recorded as “comparatively excellent”. The “solubility in the solvent” value in data set [2] (hydrate) is listed as “excellent”.

Regarding `Cc1cccc2scc(Cn3c(SCCCC(=O)O)nc4ccccc43)c12` [crystal B, 4-(1-((4-methylbenzothiophen-3-yl)methyl)benzimidazol-2-ylthio)butanoic acid], the storage stability result in data set [1] is “excellent”. Also, the “solubility in the solvent” value in data set [2] was “becomes higher in this order”. The “stability (rank order of crystal forms)” value in data set [3] is “becomes lower in the order of crystal D, crystal B, crystal A and crystal E”.

Regarding `Cc1cccc2scc(Cn3c(SCCCC(=O)O)nc4ccccc43)c12` [crystal A, 4-(1-((4-methylbenzothiophen-3-yl)methyl)benzimidazol-2-ylthio)butanoic acid], the storage stability entry in data set [1] is “excellent”. Further, the absorptivity result in data set [4] is reported as “comparatively excellent”. In addition, the “solubility in the solvent” value in data set [2] was “becomes higher in this order; also recorded: excellent”. Moreover, the “stability (rank order of crystal forms)” value in data set [3] is “becomes lower in the order of crystal D, crystal B, crystal A and crystal E”.
